From patent US11083725B2 (priority 2014, dated 2021)

System: NHBE cells
Assay: Biolog metabolic array: substrate use by NHBE cells with or without CA09 infection
Format: cell-based, human
Settings: for Substrate use, 590 nm absorbance normalized to zero hour, 1 hr: Biolog PMM2, 1 hr; for Substrate use, 590 nm absorbance normalized to zero hour, 5 hr: Biolog PMM2, 5 hr; for Substrate use, 590 nm absorbance normalized to zero hour, 7 hr: Biolog PMM2, 7 hr; for Substrate use, 590 nm absorbance normalized to zero hour, 0 hr: Biolog PMM2, 0 hr
[1] = Control (uninfected) NHBE cells
[2] = Virus (CA09-infected, MOI 1) NHBE cells
[3] = Virus: CA09-infected NHBE cells, MOI 1, Biolog PMM2
[4] = Virus (CA09-infected NHBE cells, MOI 1)

SMILES	590 nm absorbance normalized to zero hour (substrate use), 1 hr [1]	590 nm absorbance normalized to zero hour (substrate use), 2 hr [1]	590 nm absorbance normalized to zero hour (substrate use), 3 hr [1]	590 nm absorbance normalized to zero hour (substrate use), 4 hr [1]	590 nm absorbance normalized to zero hour (substrate use), 6 hr [1]	590 nm absorbance normalized to zero hour (substrate use), 8 hr [1]	590 nm absorbance normalized to zero hour (substrate use), 9 hr [1]	590 nm absorbance normalized to zero hour (substrate use), 10 hr [1]	590 nm absorbance normalized to zero hour (substrate use), 11 hr [1]	Substrate use, 590 nm absorbance normalized to zero hour, 1 hr [1]	Substrate use, 590 nm absorbance normalized to zero hour, 5 hr [1]	Substrate use, 590 nm absorbance normalized to zero hour, 7 hr [1]	590 nm absorbance normalized to zero hour (substrate use), 1 hr [3]	590 nm absorbance normalized to zero hour (substrate use), 2 hr [3]	590 nm absorbance normalized to zero hour (substrate use), 3 hr [3]	590 nm absorbance normalized to zero hour (substrate use), 4 hr [3]	590 nm absorbance normalized to zero hour (substrate use), 5 hr [3]	590 nm absorbance normalized to zero hour (substrate use), 6 hr [3]	590 nm absorbance normalized to zero hour (substrate use), 7 hr [3]	590 nm absorbance normalized to zero hour (substrate use), 8 hr [3]	other results
O=C[C@H](O)[C@@H](O)[C@@H](O)CO [L-Arabinose]	1.72	2.30	2.99	3.04	2.95	3.74	4.05	4.01	4.09	1.72	3.33	3.87	1.79	2.45	3.01	3.10	3.49	3.66	3.82	4.01	590 nm absorbance normalized to zero hour (substrate use), 1 hr [2]: 1.79; 590 nm absorbance normalized to zero hour (substrate use), 2 hr [2]: 2.45; 590 nm absorbance normalized to zero hour (substrate use), 3 hr [2]: 3.01; 590 nm absorbance normalized to zero hour (substrate use), 4 hr [2]: 3.10; 590 nm absorbance normalized to zero hour (substrate use), 5 hr [2]: 3.49; 590 nm absorbance normalized to zero hour (substrate use), 6 hr [2]: 3.66; 590 nm absorbance normalized to zero hour (substrate use), 7 hr [2]: 3.82; 590 nm absorbance normalized to zero hour (substrate use), 8 hr [2]: 4.01; 590 nm absorbance normalized to zero hour (substrate use), 9 hr [2]: 4.41; 590 nm absorbance normalized to zero hour (substrate use), 10 hr [2]: 4.50; 590 nm absorbance normalized to zero hour (substrate use), 11 hr [2]: 4.78; 590 nm absorbance normalized to zero hour (substrate use), 9 hr [3]: 4.41; 590 nm absorbance normalized to zero hour (substrate use), 10 hr [3]: 4.50; 590 nm absorbance normalized to zero hour (substrate use), 11 hr [3]: 4.78
C[C@@H]1OC(O)[C@@H](O)[C@H](O)[C@@H]1O (stereo partly drawn) [L-Fucose]	0.10	0.20	0.18	0.18	0.26	0.27	0.26	0.24	0.26	0.10	0.22	0.25	0.21	0.28	0.33	0.35	0.42	0.45	0.47	0.50	590 nm absorbance normalized to zero hour (substrate use), 0 hr [1]: 1.00; Substrate use, 590 nm absorbance normalized to zero hour, 0 hr [1]: 1.00; 590 nm absorbance normalized to zero hour (substrate use), 0 hr [4]: 1.00; 590 nm absorbance normalized to zero hour (substrate use), 1 hr [4]: 0.21; 590 nm absorbance normalized to zero hour (substrate use), 2 hr [4]: 0.28; 590 nm absorbance normalized to zero hour (substrate use), 3 hr [4]: 0.33; 590 nm absorbance normalized to zero hour (substrate use), 4 hr [4]: 0.35; 590 nm absorbance normalized to zero hour (substrate use), 5 hr [4]: 0.42; 590 nm absorbance normalized to zero hour (substrate use), 6 hr [4]: 0.45; 590 nm absorbance normalized to zero hour (substrate use), 7 hr [4]: 0.47; 590 nm absorbance normalized to zero hour (substrate use), 8 hr [4]: 0.50; 590 nm absorbance normalized to zero hour (substrate use), 9 hr [4]: 0.54; 590 nm absorbance normalized to zero hour (substrate use), 10 hr [4]: 0.57; 590 nm absorbance normalized to zero hour (substrate use), 11 hr [4]: 0.61; 590 nm absorbance normalized to zero hour (substrate use), 0 hr [3]: 1.00; 590 nm absorbance normalized to zero hour (substrate use), 9 hr [3]: 0.54; 590 nm absorbance normalized to zero hour (substrate use), 10 hr [3]: 0.57; 590 nm absorbance normalized to zero hour (substrate use), 11 hr [3]: 0.61
OC[C@@H]1OC(O)[C@@H](O)[C@H](O)[C@H]1O (stereo partly drawn) [L-Glucose]	1.65	2.20	2.64	2.83	3.82	3.55	3.76	3.89	4.25	1.65	3.52	3.51	0.29	0.39	0.45	0.49	0.57	0.61	0.64	0.68	590 nm absorbance normalized to zero hour (substrate use), 0 hr [1]: 1.00; Substrate use, 590 nm absorbance normalized to zero hour, 0 hr [1]: 1.00; 590 nm absorbance normalized to zero hour (substrate use), 0 hr [4]: 1.00; 590 nm absorbance normalized to zero hour (substrate use), 1 hr [4]: 0.29; 590 nm absorbance normalized to zero hour (substrate use), 2 hr [4]: 0.39; 590 nm absorbance normalized to zero hour (substrate use), 3 hr [4]: 0.45; 590 nm absorbance normalized to zero hour (substrate use), 4 hr [4]: 0.49; 590 nm absorbance normalized to zero hour (substrate use), 5 hr [4]: 0.57; 590 nm absorbance normalized to zero hour (substrate use), 6 hr [4]: 0.61; 590 nm absorbance normalized to zero hour (substrate use), 7 hr [4]: 0.64; 590 nm absorbance normalized to zero hour (substrate use), 8 hr [4]: 0.68; 590 nm absorbance normalized to zero hour (substrate use), 9 hr [4]: 0.76; 590 nm absorbance normalized to zero hour (substrate use), 10 hr [4]: 0.76; 590 nm absorbance normalized to zero hour (substrate use), 11 hr [4]: 0.86; 590 nm absorbance normalized to zero hour (substrate use), 0 hr [3]: 1.00; 590 nm absorbance normalized to zero hour (substrate use), 9 hr [3]: 0.76; 590 nm absorbance normalized to zero hour (substrate use), 10 hr [3]: 0.76; 590 nm absorbance normalized to zero hour (substrate use), 11 hr [3]: 0.86
CC(O)C(=O)O [L-Lactic Acid (DL)]	1.56	2.01	2.57	2.66	1.75	3.21	3.56	3.63	4.70	1.56	3.09	2.97	1.33	1.66	2.04	2.11	2.48	2.68	2.86	3.04	590 nm absorbance normalized to zero hour (substrate use), 0 hr [1]: 1.00; Substrate use, 590 nm absorbance normalized to zero hour, 0 hr [1]: 1.00; 590 nm absorbance normalized to zero hour (substrate use), 0 hr [2]: 1.00; 590 nm absorbance normalized to zero hour (substrate use), 1 hr [2]: 1.33; 590 nm absorbance normalized to zero hour (substrate use), 2 hr [2]: 1.66; 590 nm absorbance normalized to zero hour (substrate use), 3 hr [2]: 2.04; 590 nm absorbance normalized to zero hour (substrate use), 4 hr [2]: 2.11; 590 nm absorbance normalized to zero hour (substrate use), 5 hr [2]: 2.48; 590 nm absorbance normalized to zero hour (substrate use), 6 hr [2]: 2.68; 590 nm absorbance normalized to zero hour (substrate use), 7 hr [2]: 2.86; 590 nm absorbance normalized to zero hour (substrate use), 8 hr [2]: 3.04; 590 nm absorbance normalized to zero hour (substrate use), 9 hr [2]: 3.36; 590 nm absorbance normalized to zero hour (substrate use), 10 hr [2]: 3.49; 590 nm absorbance normalized to zero hour (substrate use), 11 hr [2]: 3.91; 590 nm absorbance normalized to zero hour (substrate use), 0 hr [3]: 1.00; 590 nm absorbance normalized to zero hour (substrate use), 9 hr [3]: 3.36; 590 nm absorbance normalized to zero hour (substrate use), 10 hr [3]: 3.49; 590 nm absorbance normalized to zero hour (substrate use), 11 hr [3]: 3.91
